Data from PubChem BioAssay AID1645848.
≈ marks a conversion by molar mass, not a printed value.

Conditions: buffer; pH 7.4; 6.0 h; 150.0 µM

solubility kinetic [µg/mL] | Structure (SMILES)
50.9 (≈ 110 µM) | N#Cc1ccccc1S(=O)(=O)Nc1cnccc1C(=O)Nc1nc(-c2ccccc2)cs1
4.69 (≈ 12.9 µM) | O=C(NCc1cccnc1)c1nc(-c2ccc(Cl)nc2)c2cnccn12
> 68 | CC1=C[C@@H](CNCc2cccnc2)[C@H](C(C)C)C[C@H]1Cc1nnc(-c2ccc([N+](=O)[O-])cc2)o1
15.3 (≈ 44.5 µM) | Cn1nnnc1Sc1ncnc2scc(-c3ccc(F)cc3)c12
1.04 (≈ 2.96 µM) | COc1ccccc1-c1nnc2sc(-c3ccc(N(C)C)cc3)nn12
18.1 (≈ 42.9 µM) | CCN1C(=O)c2ccccc2[S@](=O)c2ccc(C(=O)NCc3ccc(F)cc3)cc21
2.74 (≈ 6.35 µM) | CCOC(=O)c1[nH]c(C)c(CCC(=O)N2CCN(c3cc(Cl)ccc3C)CC2)c1C
1.07 (≈ 2.63 µM) | Cc1sc(NC(=O)Cc2ccc3c(c2)OCO3)nc1-c1ccc2c(c1)CCN2C
> 57 | COc1ccc2c3c([nH]c2c1)C1CC2C(CC(O)C(OC)C2CO)CN1CC3 (stereo not drawn)
22.5 (≈ 59.2 µM) | CN(Cc1ccccc1)C(=O)c1ccc(S(=O)(=O)Nc2ccccc2)cc1
> 52 | O=C1CCc2cc(S(=O)(=O)Nc3ccc(F)c(Cl)c3)ccc2N1
11.6 (≈ 29.6 µM) | COc1cccc(CNc2ccc(S(=O)(=O)Nc3cccs3)cc2)c1O
< 1 | Cc1sc(NC(=O)Cc2ccc3c(c2)OCO3)nc1-c1ccc2c(c1)CCN2
7.92 (≈ 20.8 µM) | Cc1ccnc(NC(=S)N2CC[C@@H](Nc3cccc(C(F)(F)F)c3)C2)c1
< 1 | CC(C)(C)c1ccc(-c2nc(SCCCOc3ccccc3)n3[nH]c(=O)cc3n2)cc1
58 (≈ 118 µM) | O=C(Nc1nc(-c2ccccc2)cs1)c1ccncc1NS(=O)(=O)c1c(F)cc(F)cc1F
< 1 | O=[S+]([O-])(Nc1cccc2cccnc12)c1ccc(NCc2ccc(Cl)cc2O)cc1
1.45 (≈ 3.38 µM) | CCOC(=O)c1ccc(N2C(=O)c3n[nH]c(-c4ccco4)c3C2c2ccc(C)cc2)cc1 (stereo not drawn)
< 1 | Fc1cnc(-c2ccccc2C(F)F)nc1NCc1ccc(-c2ccn[nH]2)cc1
45.3 (≈ 124 µM) | Fc1ccc(CN2CCNc3cc(Nc4ccccc4)ncc3C2)cc1F
> 45 | c1ccc(-c2nc(N3CCCCCC3)c3ccccc3n2)nc1
2.27 (≈ 5.47 µM) | CCc1ccc2ncc(C(=O)c3ccc(C)c(C)c3)c(N3CCC(C(N)=O)CC3)c2c1
10.6 (≈ 32.9 µM) | NC(=O)C1CCN(c2nc(-c3cccc(Cl)c3)cs2)CC1
< 1 | COc1cc(/C=C(\C#N)c2nc3ccccc3[nH]2)ccc1OCc1ccc(F)cc1

solubility kinetic [µg/mL] | Structure (SMILES)
< 1 | FC(F)(F)c1cccc(Sc2nc(-c3ccccc3)nnc2C(F)(F)F)c1
30.6 (≈ 84.3 µM) | NC(=O)C1CCN(c2nc(-c3ccccc3-c3ccccc3)cs2)CC1
27.3 (≈ 78.3 µM) | Fc1cccc(CN2CCNc3cc(Nc4ccccc4)ncc3C2)c1
< 1 | Cc1ccccc1C(=O)n1ccc2cc(-c3nc(NC(=O)Cc4ccc5c(c4)OCO5)sc3C)ccc21
> 53 | Nc1ccccc1CNc1ccc(S(=O)(=O)Nc2nccs2)cc1
< 1 | CNc1cc(-c2nc(Nc3ccc(F)c(F)c3)c3ccccc3n2)ccn1
3.32 (≈ 9.35 µM) | CCn1nnnc1Sc1ncnc2scc(-c3ccc(C)cc3)c12
< 1 | O=C1CCCC2=C1C(C1CCCCC1Cl)N=C(NC1NC3CCCCC3S1)N2 (stereo not drawn)
< 1 | Cc1ccc(C(=O)Nc2cccc(C(F)(F)F)c2)cc1Nc1nc(-c2cccnc2)nc2c1cnn2C
1.6 (≈ 4.54 µM) | Fc1ccc(Cl)cc1-c1nc(Nc2ccncc2)c2nccnc2n1
< 1 | O=C(Nc1nnc(C2CCCCC2)s1)c1ccc(Br)s1
< 1 | CCS(=O)(=O)c1cccc(C(=O)Nc2ccc(-c3nc4ccccc4s3)c(O)c2)c1
4.18 (≈ 14.3 µM) | CCCCCCCc1c(C)nc(N2CCOCC2)[nH]c1=O
2.32 (≈ 6.09 µM) | Cc1ccnc(NC(=S)N2CCN(c3cc(Cl)cc(Cl)c3)CC2)c1
31.9 (≈ 92.4 µM) | O=S(=O)(Nc1nccs1)c1ccc(NCc2ccccc2)cc1
< 1 | COc1ccc(-c2cc(C(F)(F)F)nc(SCCC(=O)Nc3cc(C)ccc3O)n2)cc1
4.29 (≈ 9.47 µM) | COc1cccc(CN2CCCC(c3nc(-c4ccncc4)ncc3-c3ccccc3)C2)c1O (stereo not drawn)
13.2 (≈ 33.2 µM) | Cc1cnc(-c2ccccc2C(C)(C)C)nc1NCc1ccc(-n2ccnn2)cc1
2.59 (≈ 6.1 µM) | COc1cccc(CNc2ccc(S(=O)(=O)Nc3nc4ccccc4[nH]3)cc2)c1O
< 1 | Cc1ccc(-c2cc(C(=O)Nc3ccc(S(C)(=O)=O)cc3)c3ccccc3n2)cc1C
< 1 | Cc1csc2nc(-c3cccc(NC(=O)c4cccc(F)c4)c3)cn12
< 1 | COc1cccc(-c2noc(Nc3ccc4c(c3)OCCO4)n2)c1
5.17 (≈ 16.3 µM) | NS(=O)(=O)c1ccc(NC(=O)c2cc3ncccn3n2)cc1
< 1 | COc1ccc2cc1Oc1ccc(cc1)C[C@@H]1c3c(cc(OC)c4c3Oc3cc5c(cc3O4)CCN[C@H]5C2)CCN1C

solubility kinetic [µg/mL] | Structure (SMILES)
< 1 | COc1cc(NS(=O)(=O)c2ccc(C)cc2)c(C(=O)Nc2nc(-c3ccccc3)cs2)cc1OC
> 60 | N[C@@H]1CN(c2c(F)cc3c(=O)c(C(=O)O)cn([C@@H]4C[C@@H]4F)c3c2Cl)CC12CC2
> 47 | Nc1ncnc2c1c(-c1cnc3[nH]ccc3c1)nn2C1CCCC1
< 1 | COc1cc2c(Oc3ccc(-c4cnc(Nc5ccc(F)cc5)n(C)c4=O)cc3F)ccnc2cc1OCCCN1CCOCC1
> 48 | Cc1cc(C)nc(NC(=S)N2CCN(c3ccncc3)CC2)c1
< 1 | COc1cc2nccc(Oc3ccc(NC(=O)Nc4cc(C)on4)c(Cl)c3)c2cc1OC
> 42 | Cc1ccc(C(=O)Nc2nc3nc(C)cc(=O)n3[nH]2)cc1
39.5 (≈ 90.1 µM) | COCC(C)NCc1cc2ccc(OC)cc2nc1N1CCN(c2ccc(F)cc2)CC1 (stereo not drawn)
< 1 | Cc1ccc2oc(NC3=NC(c4ccccc4Cl)C4=C(CCCC4=O)N3)nc2c1 (stereo not drawn)
34.7 (≈ 65.2 µM) | CCN(CC)CCCCNc1ncc2cc(-c3c(Cl)cccc3Cl)c(NC(=O)NC(C)(C)C)nc2n1
8.61 (≈ 22.5 µM) | COc1ccc(C(=O)NC2CCN(c3cnn(CC4CC4)c(=O)c3)CC2)cc1
2.88 (≈ 6.21 µM) | COc1ccnc(NC(=S)N2CCN(c3cc(C(F)(F)F)cc(C(F)(F)F)c3)CC2)c1
> 44 | Clc1ccc2ncc(-c3cccc(NC4CNC4)n3)n2c1
25.4 (≈ 55.8 µM) | Cc1ccc(S(=O)(=O)Nc2cnccc2C(=O)Nc2nc(-c3cnn(C)c3)cs2)cc1
< 1 | c1cn2cc(-c3ccc4cn[nH]c4c3)nc(Nc3ccc(N4CCOCC4)cc3)c2n1
> 71 | COc1cccc(-c2csc(NC(=O)c3ccncc3NS(=O)(=O)c3ccc(C)cc3)n2)c1
> 63 | Cn1c(CN2CCCCC2)nc2cc(NC(=O)c3cccc(Br)c3)ccc21
7.22 (≈ 19.8 µM) | CS(=O)(=O)c1ccc(-c2csc(N3CCC(C(N)=O)CC3)n2)cc1
3.29 (≈ 7.18 µM) | O=C(CCCc1ccc2cccnc2n1)NCc1cc(-c2ccc(F)c(C(F)(F)F)c2)no1
13.4 (≈ 40.3 µM) | CC(C)N(CCC(=O)c1ccc2ccccc2c1)Cc1ccccc1
> 49 | Cc1ccnc(C)c1C(=O)Nc1cccc([S+](=O)([O-])N(C)C)c1
< 1 | CC1CN(c2ccc(Nc3nc(-c4ccncc4)nc4ccccc34)cc2F)CC(C)O1 (stereo not drawn)
< 1 | Cc1nc2ccc(Nc3nc(-c4ccncc4)nc4ccccc34)cc2s1
> 75 | C[C@@H]1CN(CC(=O)N2CC(C)(C)c3ncc(Cc4ccc(F)cc4)cc32)[C@@H](CN2CCOC[C@H]2C)CN1

solubility kinetic [µg/mL] | Structure (SMILES)
> 72 | COc1cccc(CNC(=O)c2c(OC)cc(=O)n3c2CCN(C(=O)c2ccc(C)cc2C)CC3)c1
64 (≈ 118 µM) | CCCc1cc(C)[nH]c(=O)c1CNC(=O)c1cc(-c2ccnc(N3CCN(C)CC3)c2)cc2c1cnn2C(C)C
> 86 | O=C(NCCCO)c1ccc(-c2ncc3cnc(-c4cccc(F)c4)cn23)cc1
32.9 (≈ 66.9 µM) | CC(C)C(=O)N1CCc2ccc(OCc3nc(C(=O)N4CCCC4)co3)cc2C1c1cccc(F)c1 (stereo not drawn)
< 1 | CN1C(=O)C(=O)N2C(=C[C@]3(c4c[nH]c5ccccc45)c4ccccc4N[C@H]23)C1=O
< 1 | CCCCCCN(CCCCCC)C(=O)Cc1c(-c2ccc(F)cc2)[nH]c2ccccc12
10.4 (≈ 29.7 µM) | Cc1ccc(CN2CCOC[C@H]2c2ncc(-c3cccc(F)c3)[nH]2)cc1
41.8 (≈ 99 µM) | CCOC(=O)C1CCN(C(=O)C2(NC(=O)Nc3ccccc3Cl)CCCC2)CC1
> 63 | O=C(O)c1c(Sc2ccccc2)c2cc(Cl)ccc2n1Cc1ccc(Cl)cc1
4.17 (≈ 7.86 µM) | CS(=O)(=O)c1ccc(-c2nnc(/C=C/c3nnc(-c4ccc(C#N)cc4)o3)n2-c2ccccc2Cl)nc1
6.22 (≈ 15.7 µM) | CCc1nc2c(sc3nc4c(cc32)COC(C)(C)C4)c(=O)n1Cc1ccco1
> 67 | COc1ccc(C2c3c(oc4ccc(Cl)cc4c3=O)C(=O)N2CCCN(C)C)cc1OC (stereo not drawn)
52.4 (≈ 111 µM) | CCOc1ccc(CCNC(=O)c2cc3sccc3n2CCN2CCOCC2)cc1OCC
14 (≈ 39.5 µM) | COc1ccc(-n2c(C)cc(C3=NNC(=NC4CC4)SC3)c2C)cc1
2.88 (≈ 7.06 µM) | CCOc1ccc(CCNC(=O)c2ccnn2Cc2cccc(C)c2)cc1OCC
< 1 | CC1CCC(n2c3cnccc3c3cnc(Nc4ccc5c(n4)CCN(C(=O)CO)C5)nc32)CC1 (stereo not drawn)
10.3 (≈ 25.2 µM) | O=[N+]([O-])c1cccc(CNc2ccc(S(=O)(=O)Nc3nccs3)cc2)c1O
> 38 | c1cc(OCCN2CCCCC2)cc(-c2n[nH]c3ccc(-c4ncn[nH]4)cc23)c1
< 1 | Cc1ccc(S(=O)(=O)Nc2ccccc2C(=O)Nc2nc(-c3ccccc3)cs2)cc1
8.36 (≈ 21.7 µM) | COc1cccc(CNc2ccc(S(=O)(=O)Nc3ccccn3)cc2)c1O
< 1 | Cc1ccc(S(=O)(=O)Nc2ccc(Cl)cc2C(=O)Nc2nc(-c3ccccc3)cs2)cc1
27.2 (≈ 61.8 µM) | O=C([C@@H]1CCCN(c2ccc3[nH]c(C4(n5cc(Cl)cn5)CC4)nc3n2)C1)N1CCCC1

Structure (SMILES) | solubility kinetic [µg/mL]
COC(=O)c1ccc(O)c2ncc(N3CCN(C)CC3)cc12 | > 30
CCOC(=O)c1ccc(NC(=O)c2sc3nc4c(cc3c2N)N2CCC4CC2)cc1 | < 1
CCCCOC(=O)c1ccnc2cc(C(OCCN3CCCCC3)c3ccccc3Cl)sc12 (stereo not drawn) | < 1
CN1CC=C(c2nc(Nc3ccc(F)c(F)c3)c3ccccc3n2)CC1 | 33.8 (≈ 96 µM)
